Common to all, as to assay type: functional
One assay has as its system Fusarium oxysporum. In words: Antifungal activity against Fusarium oxysporum assessed as zone of inhibition at 400 ug/ml by disc-diffusion method. The note with it: read-out: IZ. In general terms: Agar diffusion results depend on both activity and mobility in agar.
Another assay concerns Macrophomina phaseolina. In words: Antifungal activity against Macrophomina phaseolina assessed as zone of inhibition at 400 ug/ml by disc-diffusion method. Conditions: read-out: IZ.
Assay [1] has as its system Escherichia coli. The assay is described as follows: Antibacterial activity against Escherichia coli assessed as zone of inhibition at 400 ug/ml by disc-diffusion method. Conditions: read-out: IZ.
Assay [2] relates to Bacillus subtilis. The assay is described as follows: Antibacterial activity against Bacillus subtilis assessed as zone of inhibition at 400 ug/ml by disc-diffusion method. The note with it: read-out: IZ.
The subject of a further assay is Pseudomonas aeruginosa. In words: Antibacterial activity against Pseudomonas aeruginosa assessed as zone of inhibition at 400 ug/ml by disc-diffusion method. Conditions: read-out: IZ.
For the next assay, the system named is Aspergillus flavus. In words: Antifungal activity against Aspergillus flavus assessed as zone of inhibition at 400 ug/ml by disc-diffusion method. The note with it: read-out: IZ.
For the next assay, the system named is Proteus mirabilis. The assay is described as follows: Antibacterial activity against Proteus mirabilis ATCC 29906 assessed as inhibition of bacterial growth.
Assay [3] has as its system Staphylococcus aureus. The assay is described as follows: Antibacterial activity against Staphylococcus aureus […] assessed as inhibition of bacterial growth.
Assay [4] relates to Bacillus subtilis. In words: Antibacterial activity against Bacillus subtilis DSM 6333 assessed as inhibition of bacterial growth.
Assay [5] deals with Candida albicans. In words: Antifungal activity against Candida albicans ATCC 1231 assessed as inhibition of fungal growth.
Assay [6] deals with Staphylococcus aureus. The assay is described as follows: Antimicrobial activity against Staphylococcus aureus 4220 assessed as inhibition of microbial growth incubated for 24 hrs by two-fold serial dilution assay.
For assay [7], the system named is Staphylococcus aureus. The assay is described as follows: Antimicrobial activity against methicillin-resistant Staphylococcus aureus CCARM 3167 assessed as inhibition of microbial growth incubated for 24 hrs by two-fold serial dilution assay.
The test system of assay [8] is Escherichia coli. The assay is described as follows: Antimicrobial activity against Escherichia coli 1924 assessed as inhibition of microbial growth incubated for 24 hrs by two-fold serial dilution assay.
The subject of assay [9] is Candida albicans. The assay is described as follows: Antimicrobial activity against Candida albicans 7535 assessed as inhibition of microbial growth incubated for 24 hrs by two-fold serial dilution assay.
The subject of a further assay is Streptococcus mutans. In words: Antimicrobial activity against Streptococcus mutans 3289 assessed as inhibition of microbial growth incubated for 24 hrs by two-fold serial dilution assay.
Another assay has as its system Klebsiella pneumoniae. In words: Antibacterial activity against colistin resistant Klebsiella pneumoniae assessed as inhibition of bacterial growth incubated for 24 hrs.
Assay [10] concerns Staphylococcus aureus. In words: Antibacterial activity against methicillin-resistant Staphylococcus aureus assessed as inhibition of bacterial growth incubated for 12 to 36 hrs by broth dilution method. Conditions: time 12-36 hrs. In general terms: In broth dilution the organism is exposed to a series of concentrations in liquid medium.
The next assay deals with Enterococcus faecalis. The assay is described as follows: Antibacterial activity against multidrug-resistant Enterococcus faecalis assessed as inhibition of bacterial growth incubated for 12 to 36 hrs by broth dilution method. The note with it: time 12-36 hrs.
For assay [11], the system named is Staphylococcus aureus. The assay is described as follows: Antibacterial activity against Staphylococcus aureus assessed as inhibition of bacterial growth by two-fold serial dilution assay.
The test system of assay [12] is Staphylococcus aureus. In words: Antibacterial activity against Staphylococcus aureus ATCC 25923 assessed as inhibition of bacterial growth by two-fold serial dilution assay.
Assay [13] deals with Staphylococcus aureus. In words: Antibacterial activity against Staphylococcus aureus ATCC 29213 assessed as inhibition of bacterial growth by two-fold serial dilution assay.
In assay [14] the test system is Staphylococcus aureus. The assay is described as follows: Antibacterial activity against methicillin-resistant Staphylococcus aureus assessed as inhibition of bacterial growth by two-fold serial dilution assay.
The subject of assay [15] is Staphylococcus aureus. The assay is described as follows: Antibacterial activity against methicillin-resistant Staphylococcus aureus clinical isolate assessed as inhibition of bacterial growth incubated for 24 hrs by broth dilution assay.
In assay [16] the test system is Staphylococcus aureus. In words: Antibacterial activity against Staphylococcus aureus ATCC 25923 assessed as inhibition of bacterial growth incubated for 24 hrs by broth dilution assay.
For assay [17], the system named is Staphylococcus aureus. In words: Antibacterial activity against methicillin-resistant Staphylococcus aureus N315 assessed as inhibition of bacterial growth by micro broth dilution method.
The test system of assay [18] is Escherichia coli. In words: Antibacterial activity against Escherichia coli assessed as inhibition of bacterial growth by micro broth dilution method.

The structures appear in SMILES notation. Converted amounts (≈) assume the structure as drawn.

For `CCn1c2ccccc2c2cc3c(cc21)C(=O)CCC(=O)N3`, the zone of inhibition at 400 µg/mL in the assay with Fusarium oxysporum stood at 18 mm; in the assay with Macrophomina phaseolina it was 19 mm; with Escherichia coli [1], 20 mm; in the assay on Bacillus subtilis [2] it was 27 mm; with Pseudomonas aeruginosa, 16 mm; with Aspergillus flavus, 19 mm.

As for `c1ccc2c(c1)c1ccccc1n2Cn1cncn1`, the MIC (commonly the lowest concentration found to suppress growth) is 31.2 µg/mL (≈ 126 µM) in the assay with Proteus mirabilis, 31.2 µg/mL (≈ 126 µM) in the assay on Staphylococcus aureus [3], 31.2 µg/mL (≈ 126 µM) with Bacillus subtilis [4] and 0.016 µg/mL (≈ 0.0644 µM) in the assay on Candida albicans [5].

With `CN(C)C1=NC(c2ccc3c(c2)c2ccccc2n3Cc2ccc(Cl)cc2Cl)N=C(N)N1` (stereo unspecified), the MIC with Staphylococcus aureus [6], in the assay on Staphylococcus aureus [7], with Escherichia coli [8], with Candida albicans [9] and with Streptococcus mutans was 0.5 µg/mL each time.

As to `CCn1c2ccccc2c2c3[nH]c(C(=O)NNC(=O)c4ccc([N+](=O)[O-])cc4)cc3ccc21`, the MIC with Klebsiella pneumoniae stood at 64 µg/mL (≈ 145 µM).

In the case of `Oc1cc(-c2ccc3c(c2)[nH]c2ccccc23)cc(O)c1O`, the MIC with Staphylococcus aureus [10] is 3.13 µg/mL (≈ 10.7 µM); with Enterococcus faecalis, 6.25 µg/mL (≈ 21.5 µM).

Regarding `Sc1nnc(Cn2c3ccc(Br)cc3c3cc(Br)ccc32)o1`, the minimum inhibitory concentration (MIC) in the assay with Staphylococcus aureus [11], in the assay on Staphylococcus aureus [12], in the assay on Staphylococcus aureus [13] and with Staphylococcus aureus [14] was 0.6 µM (≈ 0.263 µg/mL) throughout.

For the compound `CCn1c2ccccc2c2c(Cl)c(N/N=C(/C(C)=O)N3CCN(CCO)CC3)ccc21`, the values for the MIC in the assay on Staphylococcus aureus [15] and with Staphylococcus aureus [16] were 1.56 µg/mL (≈ 3.53 µM) and 3.12 µg/mL (≈ 7.07 µM), respectively.

With `Cn1c(=O)c2ncn(CC(O)Cn3c4ccccc4c4cc(Br)ccc43)c2n(C)c1=O` (stereo unspecified), the values for the MIC in the assay on Staphylococcus aureus [17] and in the assay with Escherichia coli [18] were 8 µM (≈ 3.86 µg/mL) and 33 µM (≈ 15.9 µg/mL), respectively.

The values above are taken from ChEMBL document CHEMBL5532637, “Antimicrobial activity of natural and semi-synthetic carbazole alkaloids” (Eur J Med Chem, 2023).
